Assay results taken from publication PMC6667231 (International journal of nutrition, 2019).

biological target: T1, CDK4/Cyclin D1 (Homo sapiens, UniProt P11802); test: cell-free […]-ATP kinase assay, P81 phosphocellulose plate; assay type: biochemical; details: read-out: 40 μM
T1 sequence (P11802 2-303): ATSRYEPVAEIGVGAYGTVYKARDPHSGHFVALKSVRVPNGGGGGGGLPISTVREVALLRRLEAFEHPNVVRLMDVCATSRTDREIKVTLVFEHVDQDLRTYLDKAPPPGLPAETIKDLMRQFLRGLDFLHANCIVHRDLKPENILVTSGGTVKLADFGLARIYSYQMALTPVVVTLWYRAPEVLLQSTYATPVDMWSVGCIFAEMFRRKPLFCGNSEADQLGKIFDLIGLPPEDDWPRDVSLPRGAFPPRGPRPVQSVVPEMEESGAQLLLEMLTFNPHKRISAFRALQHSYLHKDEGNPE
T1 sequence (P24385 whole entry partner): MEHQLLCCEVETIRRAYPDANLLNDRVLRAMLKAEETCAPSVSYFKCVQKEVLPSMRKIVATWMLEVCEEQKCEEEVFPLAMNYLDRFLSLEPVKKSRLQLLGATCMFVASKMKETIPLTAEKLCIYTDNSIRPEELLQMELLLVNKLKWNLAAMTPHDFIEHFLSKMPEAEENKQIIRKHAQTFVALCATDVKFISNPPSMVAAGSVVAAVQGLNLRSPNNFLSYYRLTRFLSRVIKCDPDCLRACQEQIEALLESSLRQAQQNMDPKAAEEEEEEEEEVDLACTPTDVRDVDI

| SMILES | activity at 40 µM [%] |
| --- | --- |
| CC(C)=CCc1c(O)c(CC=C(C)C)c2oc3c(O)cccc3c(=O)c2c1O [8-desoxygartanin] | 81.4 ± 6.38 |
| CC(C)=CCc1c(O)c(CC=C(C)C)c2oc3c(O)ccc(O)c3c(=O)c2c1O [gartanin] | 80.2 ± 10.2 |
| COc1cc2oc3cc(O)c(OC)c(CC=C(C)C)c3c(=O)c2c(O)c1CC=C(C)C [β-mangostin] | 55 ± 2.88 |
| CC(C)=CCc1c(O)cc2oc3cc(O)c(O)c(CCC(C)(C)O)c3c(=O)c2c1O [garcinone C] | 65.7 ± 7.94 |

biological target: T1, CDK4/Cyclin D1; test: as above; assay type: biochemical; details: not given

| SMILES | IC50 [µM] |
| --- | --- |
| CC(C)=CCc1c(O)cc2oc3cc(O)c(O)c(CC=C(C)C)c3c(=O)c2c1O [γ-mangostin] | 6.2 |
| COc1c(O)cc2oc3cc(O)c(CC=C(C)C)c(O)c3c(=O)c2c1CCC(C)(C)O [garcinone D] | 12.8 |
| COc1c(O)cc2oc3cc4c(c(O)c3c(=O)c2c1CC=C(C)C)CCC(C)(C)O4 [3-isomangostin] | 15.6 |
| COc1c(O)cc2oc3cc(O)c(CC=C(C)C)c(O)c3c(=O)c2c1CC=C(C)C [α-mangostin] | 8.5 |
